Measurements taken from PubChem BioAssay AID1963960 (Molecular Pharmacology Branch, DTP, NCI, 2024).

Tested on: MDA-MB-468 spheroids with HUVEC/MSC, viability
Assay: Anticancer human tumor MDA-MB-468 cell line growth inhibition [PI3K];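 also: spheroids exposed to agents for seven days before readout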;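 as to viability, T/C: 100% = DMSO vehicle control viability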
Details: for IC50: curve of first compound; for viability, T/C: stronger effect = lower value
Source text: Combinatorial screen of targeted agents with the PI3K inhibitors inavolisib, alpelisib, duvelisib, and copanlisib in multi-cell type tumor spheroids
A high-throughput screen of multi-cell type tumor spheroids was designed to identify active combinations of targeted small molecules and PI3K pathway inhibitors. Complex spheroids include a stromal component modeled by human endothelial cells (HUVEC) and fibroblasts modeled by human mesenchymal stem cells (MSCs). The concentration ranges selected for each drug and investigational agent were based upon clinically achievable concentrations if the clinical Cmax of the agent was known.
Compounds. The drugs and investigational agents: inavolisib (NSC800729), alpelisib (NSC765974), duvelisib (NSC772469), copanlisib (NSC816437), ipatasertib (NSC767898), afuresertib (NSC778305), talazoparib (NSC767125), sapanisertib (NSC764658), selumetinib (NSC741078), tovorafenib (DAY101, NSC766906), vemurafenib (NSC761431), ravoxertinib (NSC781343), sotorasib (NSC818433), MRTX1133 (NSC 836407), abemaciclib (NSC 768073), palbociclib (NSC758247), venetoclax (NSC 766270), SY5609 (NSC837396), enzalutamide (NSC755605), and darolutamide (NSC825331), were obtained from the National Cancer Institute (NCI) Developmental Therapeutics Program Chemical Repository. The FDA-approved anticancer drug set is available from the NCI Developmental Therapeutics Program. […] The stock solutions were prepared in dimethyl sulfoxide (DMSO, Sigma-Aldrich, St. Louis, MO, cat. D2650) at 800-fold the tested concentration and stored at -70 degrees C prior to their use. All drugs and investigational agents were tested over a range starting from a high concentration at or near the clinical Cmax and decreasing in half-log increments. If the clinical Cmax for an agent had not been determined, the highest concentration tested was 10 microM.
Cell Culture. All cells were maintained in an incubator at 37 degrees C and 5% CO2 with 95% humidity. The PDC lines were cultured according to standard operating procedures established by the NCI PDMR (https://pdmr.cancer.gov/sops/default.htm). All PDCs were thawed and cultured in Matrigel-coated flasks prepared with a working solution of 1X Ham's F-12 nutrient mix, without supplementation (Invitrogen, Waltham, MA, cat. 11765054), 100 U/mL penicillin-streptomycin (Invitrogen, cat. 15140122), and 2.5% Matrigel (Corning Inc., Corning, NY, cat. 354248) for the first three passages. The 354836-022-R-J1-PDC, 475296-252-R-J1-PDC, and 997726-040-R-J2-PDC lines were cultured in 6A media, which includes advanced DMEM/F-12 (Thermo Fisher Scientific, cat. 12634028), 10 mM HEPES (Thermo Fisher Scientific, cat. 15630080), 1X GlutaMAX supplement (Thermo Fisher Scientific, cat. 35050061), 0.1 mg/mL primocin (InvivoGen, San Diego, CA, cat. ant-pm-2), 10% defined fetal bovine serum, heat inactivated (HyClone Laboratories Inc., Logan, UT, cat. SH30070.03HI), 50% L-WRN conditioned media (ATCC, cat. CRL-3276), 1.25 mM N-Acetyl-L-cysteine (Sigma-Aldrich, cat. A9165), 10 mM nicotinamide (Sigma-Aldrich, cat. N0636), 1X B-27 supplement (Thermo Fisher Scientific, cat. 17504044), 1X N-2 supplement (Thermo Fisher Scientific, cat. 17502048), and 10 microM Y-27632 dihydrochloride (Tocris Bioscience, Bristol, United Kingdom, cat. 1254). The 624824-186-R-J2-PDC line was cultured in 6C/Colon 1B media, which includes all 6A media components plus 50 ng/mL human EGF recombinant protein (Thermo Fisher Scientific, cat. PHG0311). […]

[1] = second compound 0.00316 µM, first compound 0.0316 µM
[2] = second compound 0.00316 µM, first compound 0.1 µM
[3] = second compound 0.00316 µM, first compound 0.316 µM
[4] = second compound 0.00316 µM, first compound 1 µM
[5] = second compound 0.01 µM, first compound 0.0316 µM
[6] = second compound 0.01 µM, first compound 0.1 µM
[7] = second compound 0.01 µM, first compound 0.316 µM
[8] = second compound 0.01 µM, first compound 1 µM
[9] = second compound 0.0316 µM, first compound 0.0316 µM
[10] = second compound 0.0316 µM, first compound 0.1 µM
[11] = second compound 0.0316 µM, first compound 0.316 µM
[12] = second compound 0.0316 µM, first compound 1 µM
[13] = second compound 0.1 µM, first compound 0.0316 µM
[14] = second compound 0.1 µM, first compound 0.1 µM
[15] = second compound 0.1 µM, first compound 0.316 µM
[16] = second compound 0.1 µM, first compound 1 µM
[17] = second compound 0.316 µM, first compound 0.0316 µM
[18] = second compound 0.316 µM, first compound 0.1 µM
[19] = second compound 0.316 µM, first compound 0.316 µM
[20] = second compound 0.316 µM, first compound 1 µM
[21] = second compound 1 µM, first compound 0.0316 µM
[22] = second compound 1 µM, first compound 0.1 µM
[23] = second compound 1 µM, first compound 0.316 µM
[24] = second compound 1 µM, first compound 1 µM
[25] = second compound 0.00316 µM, first compound 0.00316 µM
[26] = second compound 0.00316 µM, first compound 0.01 µM
[27] = second compound 0.01 µM, first compound 0.00316 µM
[28] = second compound 0.01 µM, first compound 0.01 µM
[29] = second compound 0.0316 µM, first compound 0.00316 µM
[30] = second compound 0.0316 µM, first compound 0.01 µM
[31] = second compound 0.1 µM, first compound 0.00316 µM
[32] = second compound 0.1 µM, first compound 0.01 µM
[33] = second compound 0.316 µM, first compound 0.00316 µM
[34] = second compound 0.316 µM, first compound 0.01 µM
[35] = second compound 1 µM, first compound 0.00316 µM
[36] = second compound 1 µM, first compound 0.01 µM

Compound `CC(C)NCC(C(=O)N1CCN(c2ncnc3c2C(C)CC3O)CC1)c1ccc(Cl)cc1` (stereo unspecified) + CC(Nc1ccc2c(c1)OCCn1cc(N3C(=O)OCC3C(F)F)nc1-2)C(N)=O has an IC50 (second compound 0.00316 µM) of 1290 nM, an IC50 (second compound 0.01 µM) of 759 nM and an IC50 (second compound 0.0316 µM) of 749 nM. It also gave an IC50 (second compound 0.1 µM) of 576 nM, an IC50 (second compound 0.316 µM) of 678 nM and an IC50 (second compound 1 µM) of 311 nM. For the same compound, the viability, T/C [1] was 90.2%, the viability, T/C [2] was 91.3% and the viability, T/C [3] was 72.5%. The viability, T/C [4] was 60.1%, the viability, T/C (second compound 0.00316 µM, first compound 3.16 µM) was 27.5% and the viability, T/C (second compound 0.00316 µM, first compound 10 µM) was 25.5%. It also gave a viability, T/C [5] of 113%, a viability, T/C [6] of 88% and a viability, T/C [7] of 67.7%. For the same compound, the viability, T/C [8] was 45.8%, the viability, T/C (second compound 0.01 µM, first compound 3.16 µM) was 27.8% and the viability, T/C (second compound 0.01 µM, first compound 10 µM) was 23.7%. It also gave a viability, T/C [9] of 88.1%, a viability, T/C [10] of 85.5% and a viability, T/C [11] of 65.6%. For the same compound, the viability, T/C [12] was 45.1%, the viability, T/C (second compound 0.0316 µM, first compound 3.16 µM) was 29.5% and the viability, T/C (second compound 0.0316 µM, first compound 10 µM) was 24.4%. The viability, T/C [13] was 104%, the viability, T/C [14] was 83.6% and the viability, T/C [15] was 57.2%. The viability, T/C [16] was 45.1%, the viability, T/C (second compound 0.1 µM, first compound 3.16 µM) was 24.3% and the viability, T/C (second compound 0.1 µM, first compound 10 µM) was 21.4%. For the same compound, the viability, T/C [17] was 89.8%, the viability, T/C [18] was 81.3% and the viability, T/C [19] was 65.7%. The viability, T/C [20] was 42.5%, the viability, T/C (second compound 0.316 µM, first compound 3.16 µM) was 26.4% and the viability, T/C (second compound 0.316 µM, first compound 10 µM) was 22%. The viability, T/C [21] was 82.5%, the viability, T/C [22] was 65.3% and the viability, T/C [23] was 50.1%. The viability, T/C [24] was 37%, the viability, T/C (second compound 1 µM, first compound 3.16 µM) was 26.2% and the viability, T/C (second compound 1 µM, first compound 10 µM) was 21.2%.
With `CCN1CCN(Cc2ccc(Nc3ncc(F)c(-c4cc(F)c5nc(C)n(C(C)C)c5c4)n3)nc2)CC1` + CC(Nc1ccc2c(c1)OCCn1cc(N3C(=O)OCC3C(F)F)nc1-2)C(N)=O the IC50 (second compound 0.00316 µM) was over 1000 nM, the IC50 (second compound 0.01 µM) was over 1000 nM and the IC50 (second compound 0.0316 µM) was over 1000 nM. The IC50 (second compound 0.1 µM) was over 1000 nM, the IC50 (second compound 0.316 µM) was 855 nM and the IC50 (second compound 1 µM) was over 1000 nM. The viability, T/C [25] was 94%, the viability, T/C [26] was 98.2% and the viability, T/C [1] was 91.5%. It also gave a viability, T/C [2] of 103%, a viability, T/C [3] of 98.9% and a viability, T/C [4] of 70.1%. The viability, T/C [27] was 101%, the viability, T/C [28] was 117% and the viability, T/C [5] was 83.4%. It also gave a viability, T/C [6] of 100%, a viability, T/C [7] of 94.5% and a viability, T/C [8] of 70.5%. The viability, T/C [29] was 103%, the viability, T/C [30] was 108% and the viability, T/C [9] was 99.2%. It also gave a viability, T/C [10] of 85.5%, a viability, T/C [11] of 104% and a viability, T/C [12] of 59.2%. It also gave a viability, T/C [31] of 106%, a viability, T/C [32] of 95.5% and a viability, T/C [13] of 99.2%. It also gave a viability, T/C [14] of 105%, a viability, T/C [15] of 89.4% and a viability, T/C [16] of 54.3%. It also gave a viability, T/C [33] of 106%, a viability, T/C [34] of 92.7% and a viability, T/C [17] of 79.9%. The viability, T/C [18] was 93.3%, the viability, T/C [19] was 84.6% and the viability, T/C [20] was 44.2%. It also gave a viability, T/C [35] of 108%, a viability, T/C [36] of 81.7% and a viability, T/C [21] of 88.6%. For the same compound, the viability, T/C [22] was 88.3%, the viability, T/C [23] was 88.3% and the viability, T/C [24] was 51.8%.
For `Cn1ncnc1[C@H]1c2n[nH]c(=O)c3cc(F)cc(c23)N[C@@H]1c1ccc(F)cc1` + CC(Nc1ccc2c(c1)OCCn1cc(N3C(=O)OCC3C(F)F)nc1-2)C(N)=O, the IC50 (second compound 0.00316 µM) was over 100 nM, the IC50 (second compound 0.01 µM) was over 100 nM and the IC50 (second compound 0.0316 µM) was over 100 nM. For the same compound, the IC50 (second compound 0.1 µM) was 86.2 nM, the IC50 (second compound 0.316 µM) was 42.4 nM and the IC50 (second compound 1 µM) was 51.6 nM. The viability, T/C (second compound 0.00316 µM, first compound 0.000316 µM) was 93.1%, the viability, T/C (second compound 0.00316 µM, first compound 0.001 µM) was 87.6% and the viability, T/C [25] was 87.3%. The viability, T/C [26] was 96.8%, the viability, T/C [1] was 72.2% and the viability, T/C [2] was 55.4%. The viability, T/C (second compound 0.01 µM, first compound 0.000316 µM) was 90%, the viability, T/C (second compound 0.01 µM, first compound 0.001 µM) was 99.3% and the viability, T/C [27] was 81%. It also gave a viability, T/C [28] of 85.6%, a viability, T/C [5] of 76.3% and a viability, T/C [6] of 56.5%. It also gave a viability, T/C (second compound 0.0316 µM, first compound 0.000316 µM) of 107%, a viability, T/C (second compound 0.0316 µM, first compound 0.001 µM) of 88.9% and a viability, T/C [29] of 83%. It also gave a viability, T/C [30] of 83.5%, a viability, T/C [9] of 74.5% and a viability, T/C [10] of 47.3%. It also gave a viability, T/C (second compound 0.1 µM, first compound 0.000316 µM) of 99.5%, a viability, T/C (second compound 0.1 µM, first compound 0.001 µM) of 77.4% and a viability, T/C [31] of 72.4%. It also gave a viability, T/C [32] of 80.2%, a viability, T/C [13] of 75.6% and a viability, T/C [14] of 45.5%. It also gave a viability, T/C (second compound 0.316 µM, first compound 0.000316 µM) of 93.4%, a viability, T/C (second compound 0.316 µM, first compound 0.001 µM) of 73.6% and a viability, T/C [33] of 73.9%. It also gave a viability, T/C [34] of 67.5%, a viability, T/C [17] of 52.4% and a viability, T/C [18] of 40.6%. The viability, T/C (second compound 1 µM, first compound 0.000316 µM) was 73.7%, the viability, T/C (second compound 1 µM, first compound 0.001 µM) was 73.4% and the viability, T/C [35] was 68.7%. It also gave a viability, T/C [36] of 67%, a viability, T/C [21] of 56% and a viability, T/C [22] of 41.3%.
